The values that follow come from ChEMBL document CHEMBL1914451, “The cephalostatins. 21. Synthesis of bis-steroidal pyrazine rhamnosides (1)” (2011).

The subject of one assay is P388. In words: Antiproliferative activity against mouse P388 cells. The format is functional. Conditions: read-out: ED50 (the source's name).
The next assay has as its system BXPC-3. Briefly: Growth inhibition of human BxPC3 cells. The format is functional.
A further assay concerns MCF7. Briefly: Growth inhibition of human MCF7 cells. The format is functional.
Another assay concerns SF-268. Briefly: Growth inhibition of human SF268 cells. The format is functional.
A further assay relates to NCI-H460. Briefly: Growth inhibition of human NCI-H460 cells. The format is functional.
The subject of the next assay is KM-20L2. Briefly: Growth inhibition of human KM20L2 cells. Format: functional.
The test system of a further assay is DU-145. Briefly: Growth inhibition of human DU145 cells. Format: functional.
Another assay relates to Candida albicans. Briefly: Antifungal activity against Candida albicans ATCC 90028 at 64 ug/ml by broth microdilution assay. The format is functional, organism-based.
The test system of assay [1] is Stenotrophomonas maltophilia. In words: Antibacterial activity against Stenotrophomonas maltophilia ATCC 13637 at 64 ug/ml by broth microdilution assay. The format is functional, organism-based.
Another assay deals with Micrococcus luteus. Briefly: Antibacterial activity against Micrococcus luteus Presque Isle 456 at 64 ug/ml by broth microdilution assay. Format: functional, organism-based. For orientation: Broth dilution looks for growth in wells or tubes with falling amounts of substance.
A further assay deals with Staphylococcus aureus. Briefly: Antibacterial activity against Staphylococcus aureus ATCC 29213 at 64 ug/ml by broth microdilution assay. Format: functional, organism-based.
In the next assay the test system is Escherichia coli. Briefly: Antibacterial activity against Escherichia coli ATCC 25922 at 64 ug/ml by broth microdilution assay. The format is functional, organism-based.
The next assay relates to Enterobacter cloacae. In words: Antibacterial activity against Enterobacter cloacae ATCC 13047 at 64 ug/ml by broth microdilution assay. Format: functional, organism-based.
Assay [2] has as its system Enterococcus faecalis. Briefly: Antibacterial activity against Enterococcus faecalis ATCC 29212 at 64 ug/ml by broth microdilution assay. Format: functional, organism-based.
A further assay deals with Streptococcus pneumoniae. Briefly: Antibacterial activity against Streptococcus pneumoniae ATCC 6303 at 64 ug/ml by broth microdilution assay. The format is functional, organism-based.
Another assay has as its system Neisseria gonorrhoeae. In words: Antibacterial activity against Neisseria gonorrhoeae ATCC 49226 at 64 ug/ml by broth microdilution assay. Format: functional, organism-based.
Another assay has as its system Cryptococcus neoformans. Briefly: Antifungal activity against Cryptococcus neoformans ATCC 90112 at 64 ug/ml by broth microdilution assay. Format: functional, organism-based.
Assay [3] deals with Enterococcus faecalis. In words: Antibacterial activity against Enterococcus faecalis ATCC 29212 by broth microdilution assay. Format: functional.

Converted amounts (≈) assume the structure as drawn. The source made the active and inactive calls. The rule behind the calls is not given here.

In the case of `CC(=O)OC/C=C1\CC[C@H]2[C@@H]3CCC4=CC(=O)CC[C@]4(C)[C@H]3[C@@H](O)C[C@]12C`, the EC50 with P388 is over 100 µg/mL.

For `C=C[C@]1(C)CCC2=C1C[C@H](O)[C@H]1[C@H]2CC[C@H]2Cc3nc4c(nc3C[C@@]21C)C[C@@H]1CC[C@H]2C3=C(C[C@H](O)[C@@H]2[C@@]1(C)C4)[C@](C)(C=C)CC3`, the EC50 with P388 was over 10 µg/mL.

Take `CC(=O)O[C@@H]1[C@@H](OC(C)=O)[C@H](C)O[C@H]2OC(C)(OC/C=C3\CC[C@H]4[C@@H]5CCC6=CC(=O)CC[C@]6(C)[C@H]5[C@@H](O)C[C@]34C)O[C@@H]21` (stereo partly specified): in the assay on P388, the EC50 was 9.5 µg/mL (≈ 15.8 µM).

`CC(=O)OC/C=C1\CC[C@H]2[C@@H]3CC[C@H]4CC(=O)[C@H](Br)C[C@]4(C)[C@H]3[C@@H](O)C[C@]12C`: the EC50 in the assay on P388 is 6.6 µg/mL (≈ 14.6 µM).

For `CC(=O)O[C@@H]1[C@@H](OC(C)=O)[C@H](C)O[C@H]2OC(C)(OC/C=C3\CC[C@H]4[C@@H]5CC[C@H]6Cc7nc8c(nc7C[C@]6(C)[C@H]5[C@@H](O)C[C@]34C)C[C@@H]3CC[C@@H]4[C@H]([C@@H](O)C[C@]5(C)/C(=C/COC6(C)O[C@@H]7O[C@@H](C)[C@H](OC(C)=O)[C@@H](OC(C)=O)[C@H]7O6)CC[C@@H]45)[C@@]3(C)C8)O[C@@H]21` (stereo partly specified), the EC50 with P388 is over 10 µg/mL.

Turning to `CC(=O)O[C@@H]1[C@@H](OC(C)=O)[C@H](C)O[C@@H](OC/C=C2\CC[C@H]3[C@@H]4CC[C@H]5Cc6nc7c(nc6C[C@]5(C)[C@H]4[C@@H](O)C[C@]23C)C[C@@H]2CC[C@@H]3[C@H]([C@@H](O)C[C@]4(C)/C(=C/CO[C@H]5O[C@@H](C)[C@H](OC(C)=O)[C@@H](OC(C)=O)[C@H]5OC(C)=O)CC[C@@H]34)[C@@]2(C)C7)[C@@H]1OC(C)=O`, the EC50 in the assay on P388 is over 10 µg/mL.

Turning to `CC(=O)O[C@@H]1[C@@H](OC(C)=O)[C@H](C)O[C@@H](OC/C=C2\CC[C@H]3[C@@H]4CC[C@H]5Cc6nc7c(nc6C[C@]5(C)[C@H]4[C@@H](O)C[C@]23C)C[C@@H]2CC[C@@H]3[C@H]([C@@H](O)C[C@]4(C)/C(=C/CO[C@@H]5O[C@@H](C)[C@H](OC(C)=O)[C@@H](OC(C)=O)[C@H]5OC(C)=O)CC[C@@H]34)[C@@]2(C)C7)[C@@H]1OC(C)=O`, the EC50 with P388 was over 10 µg/mL.

Regarding `CC(=O)OC/C=C1\CC[C@H]2[C@@H]3CC[C@H]4CC(=O)CC[C@]4(C)[C@H]3[C@@H](O)C[C@]12C`, the EC50 in the assay with P388 is 16.6 µg/mL (≈ 44.3 µM).

`C[C@@H]1O[C@@H](OC/C=C2\CC[C@H]3[C@@H]4CCC5=CC(=O)CC[C@]5(C)[C@H]4[C@@H](O)C[C@]23C)[C@H](O)[C@H](O)[C@H]1O`: the EC50 in the assay with P388 is over 100 µg/mL.

Broadly, the GI50 is the concentration giving 50% growth inhibition. For the compound `C[C@@H]1O[C@H]2OC(C)(OC/C=C3\CC[C@H]4[C@@H]5CC[C@H]6Cc7nc8c(nc7C[C@]6(C)[C@H]5[C@@H](O)C[C@]34C)C[C@@H]3CC[C@@H]4[C@H]([C@@H](O)C[C@]5(C)/C(=C/COC6(C)O[C@@H]7O[C@@H](C)[C@H](O)[C@@H](O)[C@H]7O6)CC[C@@H]45)[C@@]3(C)C8)O[C@@H]2[C@H](O)[C@H]1O` (stereo partly specified), the EC50 in the assay with P388 is over 10 µg/mL. Also, the GI50 with BXPC-3 was found to be 2.1 µg/mL (≈ 2.03 µM); in the assay on MCF7, 2.8 µg/mL (≈ 2.71 µM); in the assay on SF-268, 3 µg/mL (≈ 2.9 µM); in the assay with NCI-H460, 3.8 µg/mL (≈ 3.68 µM); in the assay on KM-20L2, 3.3 µg/mL (≈ 3.19 µM); with DU-145, 3 µg/mL (≈ 2.9 µM). For the same compound, the outcome (in the assay on Candida albicans; in [1]; in the assay on Micrococcus luteus; in the assay with Staphylococcus aureus; in the assay on Escherichia coli; in the assay on Enterobacter cloacae) was inactive. Also, the result with Enterococcus faecalis [2], in the assay with Streptococcus pneumoniae, in the assay on Neisseria gonorrhoeae and in the assay on Cryptococcus neoformans was inactive.

With `C[C@@H]1O[C@H]2OC(C)(OC/C=C3\CC[C@H]4[C@@H]5CCC6=CC(=O)CC[C@]6(C)[C@H]5[C@@H](O)C[C@]34C)O[C@@H]2[C@H](O)[C@H]1O` (stereo partly specified), the EC50 in the assay with P388 is 5.2 µg/mL (≈ 10 µM).

As usually defined, the MIC is the lowest concentration that inhibits growth of the organism. A lower MIC goes with greater potency. As to `CC(=O)OC/C=C1\CC[C@H]2[C@@H]3CC[C@H]4Cc5nc6c(nc5C[C@]4(C)[C@H]3[C@@H](O)C[C@]12C)C[C@@H]1CC[C@@H]2[C@H]([C@@H](O)C[C@]3(C)/C(=C/COC(C)=O)CC[C@@H]23)[C@@]1(C)C6`, the EC50 with P388 is 77.2 µg/mL (≈ 104 µM). Also, the MIC in the assay with Enterococcus faecalis [3] was determined as 32 µg/mL (≈ 43.2 µM).

Regarding `C[C@]12Cc3nc4c(nc3C[C@@H]1CC[C@@H]1[C@@H]2[C@@H](O)C[C@]2(C)/C(=C/CO)CC[C@@H]12)C[C@@]1(C)[C@@H](CC[C@@H]2[C@@H]1[C@@H](O)C[C@]1(C)/C(=C/CO)CC[C@@H]21)C4`, the EC50 in the assay with P388 worked out at 1.5 µg/mL (≈ 2.28 µM). In addition, the GI50 in the assay on BXPC-3 was determined as 1.3 µg/mL (≈ 1.98 µM); in the assay on MCF7 it was 1.3 µg/mL (≈ 1.98 µM); with SF-268 it was 1.7 µg/mL (≈ 2.59 µM); in the assay with NCI-H460 it was 2.2 µg/mL (≈ 3.35 µM); in the assay with KM-20L2 it was 1.7 µg/mL (≈ 2.59 µM); in the assay with DU-145, 1.8 µg/mL (≈ 2.74 µM). Moreover, the result (in the assay on Candida albicans; in assay [1]; with Micrococcus luteus; with Staphylococcus aureus; in the assay with Escherichia coli; in the assay on Enterobacter cloacae) was inactive. Moreover, the result with Enterococcus faecalis [2], in the assay on Streptococcus pneumoniae, in the assay with Neisseria gonorrhoeae and in the assay on Cryptococcus neoformans was inactive.

Regarding `C[C@@H]1O[C@H](OC/C=C2\CC[C@H]3[C@@H]4CC[C@H]5Cc6nc7c(nc6C[C@]5(C)[C@H]4[C@@H](O)C[C@]23C)C[C@@H]2CC[C@@H]3[C@H]([C@@H](O)C[C@]4(C)/C(=C/CO[C@H]5O[C@@H](C)[C@H](O)[C@@H](O)[C@H]5O)CC[C@@H]34)[C@@]2(C)C7)[C@H](O)[C@H](O)[C@H]1O`, the EC50 with P388 was over 10 µg/mL. The GI50 was 1.8 µg/mL (≈ 1.9 µM) with BXPC-3; 1.8 µg/mL (≈ 1.9 µM) with MCF7; 1.8 µg/mL (≈ 1.9 µM) in the assay with SF-268; 1.8 µg/mL (≈ 1.9 µM) in the assay with NCI-H460; 1.8 µg/mL (≈ 1.9 µM) with KM-20L2; 2 µg/mL (≈ 2.11 µM) in the assay on DU-145.

Regarding `CC(=O)OC/C=C1\CC[C@H]2[C@@H]3CC[C@H]4CC(=O)[C@H](N=[N+]=[N-])C[C@]4(C)[C@H]3[C@@H](O)C[C@]12C`, the EC50 with P388 turned out to be 12 µg/mL (≈ 28.9 µM).

For `CC(=O)O[C@@H]1[C@@H](OC(C)=O)[C@H](C)O[C@@H](OC/C=C2\CC[C@H]3[C@@H]4CCC5=CC(=O)CC[C@]5(C)[C@H]4[C@@H](O)C[C@]23C)[C@@H]1OC(C)=O`, in the assay with P388, the EC50 is over 10 µg/mL.

With `CC(=O)O[C@@H]1[C@@H](OC(C)=O)[C@H](C)O[C@H](OC/C=C2\CC[C@H]3[C@@H]4CC[C@H]5Cc6nc7c(nc6C[C@]5(C)[C@H]4[C@@H](O)C[C@]23C)C[C@@H]2CC[C@@H]3[C@H]([C@@H](O)C[C@]4(C)/C(=C/CO[C@H]5O[C@@H](C)[C@H](OC(C)=O)[C@@H](OC(C)=O)[C@H]5OC(C)=O)CC[C@@H]34)[C@@]2(C)C7)[C@@H]1OC(C)=O`, the EC50 with P388 was over 10 µg/mL.
